Reference: patent US12692288B2, “Crystalline and liquid crystalline 25-hydroxy-cholest-5-en-3-sulfate sodium and methods for preparing same” (Medicis Pharmaceutical Corporation, priority 2019, dated 2026)

Tests used:
Assay type in all cases: physicochemical
[1] = Variable humidity XRPD (VH-XRPD); conditions: for time to complete dehydration/conversion to Form XIII: exposure to 0% RH
Excerpt: (§1) X-ray powder diffraction patterns were collected with a PANalytical X'Pert PRO MPD diffractometer using an incident beam of Cu Kα radiation produced using a long, fine-focus source and a nickel filter. The diffractometer was configured using the symmetric Bragg—Brentano geometry. Data were collected and analyzed using Data Collector software v. 2.2b. […] A specimen of the sample was packed in a nickel-coated copper well. Antiscatter slits were used to minimize the background generated by air. Soller slits for the incident and diffracted beams were used to minimize broadening from axial divergence. Diffraction patterns were collected using a scanning position-sensitive detector (X'Celerator) located 240 mm from the sample and Data Collector software v. 2.2b.
An Anton Paar temperature-humidity chamber (THC) was used to collect in-situ x-ray powder diffraction patterns as a function of humidity. The temperature of the specimen was controlled with a Peltier thermoelectric device located directly under the specimen holder and monitored with a platinum-100 resistance sensor located in the specimen holder. The thermoelectric device was powered and controlled by an Anton Paar TCU 50 interfaced with Data Collector software.
The humidity was generated with an RH-200 manufactured by VTI Inc. and carried by a flow of nitrogen gas. The humidity and temperature were monitored by a Rotronic HygroClip sensor located next to the specimen inside the THC.

[2] = Physical stability of forms on exposure to humidity, temperature or vacuum, by XRPD
Excerpt: X-ray powder diffraction patterns were collected with a PANalytical X'Pert PRO MPD or PANalytical Empyrean diffractometer using an incident beam of Cu radiation produced using a long, fine-focus source. An elliptically graded multilayer mirror was used to focus Cu Kα x-rays through the specimen and onto the detector. […] A specimen of the sample was sandwiched between 3-μm-thick films and analyzed in transmission geometry. A beam-stop, short anti-scatter extension, and anti-scatter knife edge were used to minimize the background generated by air. Soller slits for the incident and diffracted beams were used to minimize broadening and asymmetry from axial divergence. Diffraction patterns were collected using a scanning position-sensitive detector (X'Celerator) located 240 mm from the specimen and Data Collector software v. 2.2b or 5.5. All images were produced with the instrument labeled as X'Pert PRO MPD regardless of the instrument used.
as §1, with “geometry.” for “geometry. Data were collected and analyzed using Data Collector software v. 2.2b.”, “a” for “a nickel-coated copper”, “Anti-scatter” for “Antiscatter”

[3] = Dynamic vapor sorption/desorption (DVS), VTI SGA-100; conditions: for form of material recovered after DVS, by XRPD: after sorption/desorption 5% to 95% RH
Experimental: Moisture sorption/desorption data were collected on a VTI SGA-100 Vapor Sorption Analyzer. NaCl and PVP were used as calibration standards. Samples were not dried prior to analysis. […] The equilibrium criterion used for analysis was less than 0.0100% weight change in 5 minutes with a maximum equilibration time of 3 hours. Data were not corrected for the initial moisture content of the samples.

[4] = Variable temperature XRPD (VT-XRPD)
Excerpt: as §1, with “air scattering.” for “air.”, “sample.” for “sample and Data Collector software v. 2.2b.”
An Anton Paar TTK 450 stage was used to collect in-situ x-ray powder diffraction patterns as a function of temperature. The sample was heated with a resistance heater located directly under the sample holder, and the temperature was monitored with a platinum-100 resistance sensor located in the specimen holder. The heater was powered and controlled by an Anton Paar TCU 100 interfaced with Data Collector software.

[5] = Water activity slurries in aqueous solvent mixtures, solid phase by XRPD
Excerpt: The effect of water activity (aw) on the hydration state can be investigated through competitive water activity trituration experiments (slurries) in various aqueous solvent mixtures. The resulting solid phase can be characterized by x-ray powder diffraction. The experiments can establish the physically stable form at various aw. Water activity can also be related to relative humidity in that RH %=aw×100. Therefore, it is possible to directly relate the stability of an anhydrous/hydrate system in slurry experiments to solid-state stability. The slurry technique at controlled water activities can provide an accurate method of rapidly predicting the physically stable form in anhydrous/hydrate systems. […] The times, temperatures, and humidity are approximate. As with Table 1, the term “B” means birefringent when viewed by polarized light microscopy with cross polars.
Solutions were prepared by adding enough solids to a given solvent so that excess solids were present. The mixture was then agitated in a sealed vial at either ambient or elevated temperature. After a given amount of time, the solids were isolated for analysis.

[6] = Dynamic Vapor Sorption test (SMS DVS Intrinsic), Example 23; conditions: 25° C.
Experimental: Dynamic Vapor Sorption (DVS) was measured using an SMS (Surface Measurement Systems) DVS Intrinsic. [table]

[7] = from 5 to 25% RH, screening material, mixture of Form I and Form II
[8] = from 25 to 85% RH, screening material, mixture of Form I and Form II

C[C@H](CCCC(C)(C)O)[C@H]1CC[C@H]2[C@@H]3CC=C4C[C@@H](OS(=O)(=O)[O-])CC[C@]4(C)[C@H]3CC[C@]12C.[Na+] [Form XIII, 25HC3S sodium]
relative humidity before which Form XIII hydrates to Form I ([1]; increasing humidity): < 25 % RH
form change at ambient conditions [2]: quickly hydrates to Form I

C[C@H](CCCC(C)(C)O)[C@H]1CC[C@H]2[C@@H]3CC=C4C[C@@H](OS(=O)(=O)[O-])CC[C@]4(C)[C@H]3CC[C@]12C.[Na+] [Form III, 25HC3S sodium]
form change on heating ([2]; 58° C. and vacuum overnight, or 130° C.): desolvates to another anhydrous form, Form IX
form change at ambient conditions [2]: desolvates to Form II

C[C@H](CCCC(C)(C)O)[C@H]1CC[C@H]2[C@@H]3CC=C4C[C@@H](OS(=O)(=O)[O-])CC[C@]4(C)[C@H]3CC[C@]12C.[Na+] [Form II, 25HC3S sodium]
water accommodated in fully hydrated state ([3]; DVS sorption isotherm at 85% RH (FIG. 16)): approximately 3 mol/mol of water
form of material recovered after DVS, by XRPD [3]: mixture of Form II and Form V
water corresponding to weight gain (DVS) ([3]; from 5 to 55% RH): 1 mol/mol water
weight gain (DVS) ([3]; from 5 to 55% RH): approximately 3.5 wt %
water corresponding to weight gain (DVS) ([3]; from 55 to 85% RH): 2 mol/mol water
weight gain (DVS) ([3]; from 55 to 85% RH): ~7 wt %
weight gain (DVS) ([3]; from 85 to 95% RH): ~7 wt %
form change in variable humidity XRPD ([1]; ambient temperature, 0% to 85% RH): a form change did not occur
form observed by XRPD at elevated temperature ([4]; 135° C.): still observed
relative humidity of exposure at which the form converts to Form V [2]: ≥ 75 % RH
time to conversion to Form V ([2]; exposure to 75% RH): up to 35 days
form stability by XRPD ([2]; stored at 0% RH for up to 35 days): remained unchanged
form stability by XRPD ([2]; under dry nitrogen for up to 4 days): remained unchanged

C[C@H](CCCC(C)(C)O)[C@H]1CC[C@H]2[C@@H]3CC=C4C[C@@H](OS(=O)(=O)[O-])CC[C@]4(C)[C@H]3CC[C@]12C.[Na+] [Forms I+XIII, 25HC3S sodium]
time to complete dehydration/conversion to Form XIII [1]: ≤ 20 min
form change on exposure to humidity ([1]; isolated at 15% RH, exposed to 25% RH, held minimum one hour): converted to Form I

C[C@H](CCCC(C)(C)O)[C@H]1CC[C@H]2[C@@H]3CC=C4C[C@@H](OS(=O)(=O)[O-])CC[C@]4(C)[C@H]3CC[C@]12C.[Na+] [Form V, 25HC3S sodium]
water activity of aqueous solvent mixture slurries from which the form resulted [5]: above 0.73 aw
physical stability by XRPD ([2]; exposure to 55° C. and vacuum for 1 day): remained Form V
physical stability by XRPD ([2]; storage at ambient conditions for 25 days): no changes observed

C[C@H](CCCC(C)(C)O)[C@H]1CC[C@H]2[C@@H]3CC=C4C[C@@H](OS(=O)(=O)[O-])CC[C@]4(C)[C@H]3CC[C@]12C.[Na+] [Form I, 25HC3S sodium]
water activity above which Form I is believed to form liquid crystal Form V [5]: above 0.73 aw
behaviour upon exposure to 0% RH ([1]; 0% RH): dehydrate within minutes to Form XIII
time to complete dehydration/conversion to Form XIII [1]: 20 min
temperature by which decomposition product trisodium hydrogen disulfate, Na3H(SO4)2, was evident [4]: ≤ 170 °C
form shown after dehydration by heating ([4]; heating to 170° C. and then dropping to 135° C.): Form XIII
hygroscopicity [2]: hygroscopic
form change on drying ([2]; exposure to either 0% RH or 70° C. under vacuum): dehydrated Form I to Form XIII

C[C@H](CCCC(C)(C)O)[C@H]1CCC2C3CC=C4C[C@@H](OS(=O)(=O)[O-])CC[C@]4(C)C3CC[C@@]21C.[Na+] (stereo partly drawn) [25HC3S sodium, Sodium [(3S,10R,13R,17R)-17-[(1R)-5-hydroxy-1,5-dimethyl-hexyl]-10,13-dimethyl-2,3,4,7,8,9,11,12,14,15,16,17-dodecahydro-1H-cyclopenta[a]phenanthren-3-yl] sulfate]
form of material recovered after DVS, by XRPD [3]: predominantly Form I with an additional peak near 8.8°
water corresponding to weight gain (DVS) [3, 7]: 1.5 mol/mol water
weight gain (DVS) [3, 7]: approximately 5 wt %
water corresponding to weight gain (DVS) [3, 8]: 1.8 mol/mol water
weight gain (DVS) [3, 8]: ~6 wt %
weight gain (DVS) ([3]; from 85 to 95% RH): ~6 wt %
hygroscopicity (DVS isotherm) ([3]; screening material, mixture of Form I and Form II): hygroscopic
hygroscopicity (DVS test) [6]: hygroscopic
moisture reversibly absorbed ([6]; below 30% RH): 7.0%
water absorbed ([6]; by 95% RH): 8.5%
Result (form) of water activity slurry ([5]; 0.73 aw, 94:06 ACN/H2O, 8 days, approximately room temperature): I +
Result (form) of water activity slurry ([5]; combination of samples from 0.5 aw and 0.38 aw, 56 days, filtered and dried under N2 for 30 min.): I +
form after humidity exposure, by XRPD ([2]; 75% RH for 10 days, screening material, mixture of Form I and Form II): predominately Form I and two additional peaks near 4.4°2θ and 8.8°2θ
form after heat exposure, by XRPD ([2]; briefly exposed to 130° C., screening material, mixture of Form I and Form II): mixture of Forms I, II, and XIII
